The record followed here is PubChem BioAssay (NCI).

Molecules are shown by their SMILES.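 In this assay, cells in 96-well plates receive the compound at five concentrations for 48 hours. Endpoints are linearly interpolated between the surrounding concentrations. GI50 = concentration required for 50% inhibition of growth. TGI denotes the concentration required for complete inhibition of growth.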

Some test systems named below: SNB-78 CNS; M19-MEL melanoma; DMS 273 small cell lung; DLD-1 colon; DMS 114 small cell lung; KM20L2 colon; MDA-MB-435; PC-3 prostate; MCF7 breast.
Common to all, as to experiment: NCI tumour cell line growth inhibition, 48 h

In the case of `CN(C)CCNC(=O)c1cccc2ccc(-c3ccncc3)nc12`, the TGI with SNB-78 CNS is > 100 µM; in the experiment with M19-MEL melanoma it was 4.86 µM; in the experiment with DMS 273 small cell lung it was 7.76 µM; in the experiment with DLD-1 colon, 31 µM; in the experiment with DMS 114 small cell lung, 8.95 µM.

As for `CCOC(=O)/C(C#N)=C/c1[nH]c(C(=O)OCc2ccccc2)c(C)c1C`, the TGI in the experiment on M19-MEL melanoma, in the experiment on KM20L2 colon, in the experiment on DMS 273 small cell lung, with DLD-1 colon and in the experiment with DMS 114 small cell lung was > 100 µM in each case.

For `CC(C)(C)c1cc(CCC(=O)Nc2ccc(Cl)cc2)nc(NC#N)n1`, the TGI in the experiment with SNB-78 CNS, in the experiment with M19-MEL melanoma, in the experiment with KM20L2 colon, in the experiment on DMS 273 small cell lung and in the experiment on DLD-1 colon was > 100 µM throughout.

As to `CCN(CC)C(c1ccc(N(C)C)cc1)C(c1ccc(N(C)C)cc1)N(CC)CC` (centres undefined), the TGI with SNB-78 CNS is > 73 µM; in the experiment on M19-MEL melanoma it was > 73 µM; in the experiment with KM20L2 colon, > 73 µM; in the experiment with DMS 273 small cell lung it was > 73 µM; in the experiment on DMS 114 small cell lung it was 40.6 µM.

Regarding `O=C(O)CCSC(=O)Nc1ccc([N+](=O)[O-])cc1`, the TGI in the experiment with SNB-78 CNS, with DMS 273 small cell lung, in the experiment with DLD-1 colon and in the experiment with DMS 114 small cell lung was > 100 µM in each case.

Take `Nc1nc2c(nnn2C2CC(O)C(CO)O2)c(=O)[nH]1` (centres undefined): the GI50 in the experiment with MDA-MB-435 is 4.35 µM; with PC-3 prostate, 2.55 µM; with MCF7 breast, 4.21 µM. Moreover, the TGI in the experiment with MDA-MB-435, in the experiment with PC-3 prostate and in the experiment with MCF7 breast was > 100 µM throughout.

Take `CCOC1Oc2ccc(C)cc2C(=O)/C1=C\Nc1ccc(C(N)=O)cc1` (centres undefined): the GI50 was 20.1 µM with MDA-MB-435, 32.9 µM with PC-3 prostate and 25 µM in the experiment on MCF7 breast. Further, the TGI in the experiment on MDA-MB-435 is 50.8 µM; in the experiment on PC-3 prostate, > 100 µM; with MCF7 breast, > 100 µM.

In the case of `N#C/C(=C\c1ccc2ccccc2c1)c1ccccc1`, the TGI with SNB-78 CNS was 84.7 µM; in the experiment with M19-MEL melanoma, > 100 µM; in the experiment on KM20L2 colon, 34.9 µM; in the experiment on DMS 273 small cell lung it was 35.8 µM; in the experiment on DLD-1 colon it was > 100 µM.

On to `Nc1nc(N(Cc2ccccc2)c2ccccc2)c2cn[nH]c2n1`, for which the GI50 with MDA-MB-435 is 2.63 µM; in the experiment on PC-3 prostate, 4.56 µM; in the experiment with MCF7 breast it was 4.34 µM. In addition, the TGI in the experiment with MDA-MB-435, with PC-3 prostate and in the experiment with MCF7 breast was > 100 µM in each case.

Turning to `O=C(CC1C(=O)NN(c2ccc(Br)cc2)C1=O)c1cc(O)ccc1O` (centres undefined), the GI50 is 7.2 µM with MDA-MB-435, 24.1 µM with PC-3 prostate and 21.2 µM in the experiment with MCF7 breast. Further, the TGI with MDA-MB-435 was 23.1 µM; in the experiment with PC-3 prostate, > 50 µM; in the experiment with MCF7 breast, > 50 µM.

For `O=C1CCC(N2C(=O)c3ccccc3C2=O)C(=O)N1CO` (centres undefined), the figures for the GI50 with MDA-MB-435, in the experiment with PC-3 prostate and with MCF7 breast were > 100 µM, 47.2 µM and 26.6 µM, respectively. For the same molecule, the TGI in the experiment on MDA-MB-435, with PC-3 prostate and with MCF7 breast was > 100 µM throughout.

Turning to `COc1ccc2nc3c(C(=O)NCCN(C)C)cccc3nc2c1`, the TGI is 72 µM with SNB-78 CNS; 22.2 µM in the experiment on M19-MEL melanoma; 23.8 µM with DMS 273 small cell lung; > 1 µM in the experiment with DLD-1 colon; 20.2 µM in the experiment with DMS 114 small cell lung.

Consider `CC[C@@]1(c2ccccc2)C2=C(CC(C)(C)CC2=O)Nc2[nH]ncc21`, for which the GI50 in the experiment on MDA-MB-435, with PC-3 prostate and in the experiment with MCF7 breast was > 100 µM throughout. Further, the TGI in the experiment on MDA-MB-435, with PC-3 prostate and with MCF7 breast was > 100 µM in each case.

As to `O=S(=O)(NC1=NCCN1C(=S)SN1CCn2c1nsc2=S)c1cccc(Cl)c1`, the GI50 in the experiment with MDA-MB-435 was 9.69 µM; in the experiment with PC-3 prostate, 15.4 µM; with MCF7 breast, 15.9 µM. The TGI amounted to 27.7 µM in the experiment with MDA-MB-435, 47.2 µM with PC-3 prostate and 36.3 µM in the experiment with MCF7 breast.

As to `CCN(CC)CCCC(C)Nc1c2ccc(Cl)cc2nc2ccc(O)cc12` (centres undefined), the GI50 in the experiment on MDA-MB-435 was 1.77 µM; with PC-3 prostate it was 3.58 µM; in the experiment with MCF7 breast, 1.4 µM. Besides, the TGI in the experiment with MDA-MB-435 turned out to be 3.32 µM; in the experiment on PC-3 prostate it was 18.5 µM; in the experiment on MCF7 breast it was 5.48 µM.

As to `NC(=O)NS(=O)(=O)c1ccc(N2N=C(C(F)(F)F)CC2c2cc(C(F)(F)F)cc(C(F)(F)F)c2)cc1` (centres undefined), the GI50 was 2.57 µM in the experiment on MDA-MB-435, 2.35 µM in the experiment with PC-3 prostate and 1.85 µM with MCF7 breast. The TGI in the experiment with MDA-MB-435 is 7.16 µM; with PC-3 prostate, 12.2 µM; with MCF7 breast it was 4.86 µM.

For `C#CCNC(=O)c1cccc2c1cc(C)n2-c1nc2c(c(NCc3ccccc3)n1)CCCC2`, the GI50 in the experiment on MDA-MB-435 is 0.0235 µM; with PC-3 prostate, 0.024 µM; in the experiment on MCF7 breast, 0.0151 µM. Further, the TGI in the experiment on MDA-MB-435 stood at 0.0656 µM; in the experiment on PC-3 prostate, 0.0717 µM; in the experiment with MCF7 breast it was 0.142 µM.
